Laboratory results as given in PubChem BioAssay (NCI).
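In this assay, cells in 96-well plates receive the compound at five concentrations for 48 hours. Endpoints are linearly interpolated between the surrounding concentrations. GI50 is the concentration that inhibits growth by half. The concentration for full growth arrest is given as TGI.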

Key:
Test in all cases: NCI anticancer screen, dose series, 48 h
[1] = system: 786-0 renal
[2] = system: A498 renal
[3] = system: A549 NSCLC
[4] = system: ACHN renal
[5] = system: BT-549 breast
[6] = system: CAKI-1 renal
[7] = system: CCRF-CEM leukemia
[8] = system: COLO 205 colon
[9] = system: DU-145 prostate
[10] = system: EKVX NSCLC
[11] = system: HCC-2998 colon
[12] = system: HCT-116 colon
[13] = system: HCT-15 colon
[14] = system: HL-60(TB) leukemia
[15] = system: HOP-62 NSCLC
[16] = system: HOP-92 NSCLC
[17] = system: HS 578T breast
[18] = system: HT29 colon
[19] = system: IGROV1 ovarian
[20] = system: K-562 leukemia
[21] = system: KM12 colon
[22] = system: LOX IMVI melanoma
[23] = system: M14 melanoma
[24] = system: MCF7 breast
[25] = system: MDA-MB-231 breast
[26] = system: MDA-MB-435
[27] = system: MOLT-4 leukemia
[28] = system: NCI-H226 lung
[29] = system: NCI-H23 lung
[30] = system: NCI-H460 lung
[31] = system: NCI-H522 lung
[32] = system: NCI/ADR-RES ovarian
[33] = system: OVCAR-3 ovarian
[34] = system: OVCAR-5 ovarian
[35] = system: OVCAR-8 ovarian
[36] = system: PC-3 prostate
[37] = system: RPMI-8226 leukemia
[38] = system: RXF 393 renal
[39] = system: SF-268 CNS
[40] = system: SF-295 CNS
[41] = system: SF-539 CNS
[42] = system: SK-MEL-2 melanoma
[43] = system: SK-MEL-28 melanoma
[44] = system: SK-MEL-5 melanoma
[45] = system: SK-OV-3 ovarian
[46] = system: SN12C renal
[47] = system: SNB-19 CNS
[48] = system: SNB-75 CNS
[49] = system: SR leukemia
[50] = system: SW-620 colon
[51] = system: T-47D breast
[52] = system: TK-10 renal
[53] = system: U251 CNS
[54] = system: UACC-257 melanoma
[55] = system: UACC-62 melanoma
[56] = system: UO-31 renal

CC(=O)OC1Oc2ccc(C)cc2-c2oc(=O)c(-c3cc4ccccc4oc3=O)cc21 (configuration not stated)
GI50 [1]: 1.92 µM
TGI [1]: 7.74 µM
GI50 [2]: 0.612 µM
TGI [2]: 4.07 µM
GI50 [3]: 4.55 µM
TGI [3]: 20.8 µM
GI50 [4]: 3.06 µM
TGI [4]: 11.4 µM
GI50 [5]: 3.03 µM
TGI [5]: 8.86 µM
GI50 [6]: 2.56 µM
TGI [6]: 7.69 µM
GI50 [7]: 1.38 µM
TGI [7]: 5.42 µM
GI50 [8]: 2.77 µM
TGI [8]: 15.7 µM
GI50 [9]: 1.92 µM
TGI [9]: 8.1 µM
GI50 [10]: 6.02 µM
TGI [10]: 23.8 µM
GI50 [11]: 2.43 µM
TGI [11]: 9.33 µM
GI50 [12]: 2.08 µM
TGI [12]: 8.62 µM
GI50 [13]: 1.87 µM
TGI [13]: 11.6 µM
GI50 [14]: 0.822 µM
TGI [14]: 3.08 µM
GI50 [15]: 3.77 µM
TGI [15]: 12.8 µM
GI50 [16]: 1.12 µM
TGI [16]: 3.61 µM
GI50 [17]: 0.142 µM
TGI [17]: 8.09 µM
GI50 [18]: 2.08 µM
TGI [18]: 34 µM
GI50 [19]: 4 µM
TGI [19]: 37.7 µM
GI50 [20]: 2.1 µM
TGI [20]: 14.1 µM
GI50 [21]: 1.43 µM
TGI [21]: 5.94 µM
GI50 [22]: 1.2 µM
TGI [22]: 3.71 µM
GI50 [23]: 1.2 µM
TGI [23]: 2.78 µM
GI50 [24]: 1.98 µM
TGI [24]: 7.01 µM
GI50 [25]: 1.83 µM
TGI [25]: 5.67 µM
GI50 [26]: 0.985 µM
TGI [26]: 2.7 µM
GI50 [27]: 1.8 µM
TGI [27]: 3.99 µM
GI50 [28]: 4.61 µM
TGI [28]: 16.5 µM
GI50 [29]: 2.82 µM
TGI [29]: 12 µM
GI50 [30]: 2.64 µM
TGI [30]: 17.8 µM
GI50 [31]: 8.96 µM
TGI [31]: 34.6 µM
GI50 [32]: 2.54 µM
TGI [32]: 18.1 µM
GI50 [33]: 1.19 µM
TGI [33]: 8.15 µM
GI50 [34]: 3.38 µM
TGI [34]: 21 µM
GI50 [35]: 3.8 µM
TGI [35]: 8.16 µM
GI50 [36]: 2.13 µM
TGI [36]: 8.54 µM
GI50 [37]: 0.943 µM
TGI [37]: 2.41 µM
GI50 [38]: 3.01 µM
TGI [38]: 14.3 µM
GI50 [39]: 3.27 µM
TGI [39]: 12.2 µM
GI50 [40]: 2.13 µM
TGI [40]: 13 µM
GI50 [41]: 2.07 µM
TGI [41]: 6.21 µM
GI50 [42]: 8.14 µM
TGI [42]: 40.7 µM
GI50 [43]: 5.84 µM
TGI [43]: 27.1 µM
GI50 [44]: 2.67 µM
TGI [44]: 11.6 µM
GI50 [45]: 1.8 µM
TGI [45]: 8.57 µM
GI50 [46]: 2.77 µM
TGI [46]: 9.89 µM
GI50 [47]: 3.82 µM
TGI [47]: 25.5 µM
GI50 [48]: 2.88 µM
TGI [48]: 14.4 µM
GI50 [49]: 0.571 µM
TGI [49]: 2.04 µM
GI50 [50]: 6.05 µM
TGI [50]: 29.9 µM
GI50 [51]: 1.5 µM
TGI [51]: 6.08 µM
GI50 [52]: 1.47 µM
TGI [52]: 7.93 µM
GI50 [53]: 2.67 µM
TGI [53]: 26.8 µM
GI50 [54]: 8.52 µM
TGI [54]: 27.4 µM
GI50 [55]: 2.57 µM
TGI [55]: 9.19 µM
GI50 [56]: 7.9 µM
TGI [56]: 29.8 µM
